Source: PMC4575645 (ACS chemical biology, 2015)
Blank lines part the entries; values can stand above or below the compound they belong to.

Tests used:
[1] = molecular target: CalS13 (Micromonospora echinospora, UniProt Q8KND8); experiment: X-ray crystal structure, […] Å; type: binding
[2] = molecular target: WecE (Escherichia coli, UniProt P27833); experiment: X-ray crystal structure, […] Å; type: binding; details: covalent external aldimine with PLP; eight subunits
WecE, sequence (P27833 whole entry): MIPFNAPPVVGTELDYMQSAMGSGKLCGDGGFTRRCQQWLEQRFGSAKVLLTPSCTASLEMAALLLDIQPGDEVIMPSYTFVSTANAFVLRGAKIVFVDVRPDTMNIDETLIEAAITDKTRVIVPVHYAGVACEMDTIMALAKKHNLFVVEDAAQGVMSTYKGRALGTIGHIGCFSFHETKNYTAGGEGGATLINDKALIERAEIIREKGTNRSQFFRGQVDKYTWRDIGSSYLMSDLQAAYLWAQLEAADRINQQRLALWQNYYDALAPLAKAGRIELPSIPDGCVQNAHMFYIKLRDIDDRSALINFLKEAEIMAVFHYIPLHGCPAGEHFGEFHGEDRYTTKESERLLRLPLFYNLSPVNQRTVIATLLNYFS

X-ray crystal structure, 2.47 Å ([1]; with PLP internal aldimine, three of six subunits): three had electron density for just TDP
Compound: Cc1cn([C@H]2C[C@H](O)[C@@H](COP(=O)(O)OP(=O)(O)O)O2)c(=O)[nH]c1=O [TDP]

Compound: Cc1ncc(COP(=O)(O)O)c(C=O)c1O [PLP]
X-ray crystal structure, 2.47 Å ([1]; covalent internal aldimine with Lys202, all six subunits): All six subunits contained PLP as internal aldimines of Lys202

Compound: Cc1cn([C@H]2C[C@H](O)[C@@H](COP(=O)(O)OP(=O)(O)O[C@H]3O[C@H](C)[C@H](N)[C@H](O)[C@H]3O)O2)c(=O)[nH]c1=O [TDP-4-amino-4,6-dideoxy-α-D-galactose]
X-ray crystal structure, 2.24 Å [2]: WecE cocrystallization led to WecE/PLP/TDP-4-amino-4,6-dideoxygalactose ternary complexes
